In patent US9580432B2, “Fused pyrimidine compound or salt thereof” (TAIHO PHARMACEUTICAL CO., LTD., priority 2013, dated 2017):

Assays:
[1] = biological target: purified recombinant human BTK protein (Homo sapiens (Human), UniProt Q06187); experiment: Measurement of BTK inhibitory activity (in vitro); type: biochemical; details: FL-PEPTIDE 2 substrate 1 μM, ATP 45 μM, 40 minutes at 25° C.
From the text: With regard to the setting of the conditions for a method for measuring the inhibitory activity of a compound against BTK kinase activity in vitro, it is described in the consumable reagent supplies price list for LabChip (registered trademark) series of PerkinElmer, Inc. that FL-PEPTIDE 2 corresponds to a substrate peptide for the measurement of BTK kinase activity. Therefore, FL-PEPTIDE 2 was used as a substrate. The purified recombinant human BTK protein used in the test was purchased from Carna Biosciences, Inc.
With regard to the measurement of the inhibitory activity of the compounds, firstly, the compounds of the present invention were diluted stepwise with dimethyl sulfoxide (DMSO). Subsequently, BTK protein, a substrate peptide (final concentration was 1 μM), magnesium chloride (final concentration was 10 mM), ATP (final concentration was 45 μM), and a DMSO solution of the compounds of the present invention (final concentration of DMSO was 5%) were added to a buffer solution for kinase reaction (20 mM HEPES (pH 7.5), 2 mM dithiotheitol, 0.01% Triton X-100), and after the solution was incubated for 40 minutes at 25° C., a kinase reaction was carried out. The reaction was terminated by adding EDTA thereto in order to obtain a final concentration of 30 mM. Finally, a substrate peptide that was not phosphorylated (S) and a phosphorylated peptide (P) were separated and detected by microchannel capillary electrophoresis using a LabChip EZ Reader II (PerkinElmer, Inc.).

[2] = test system: purified recombinant human EGFR protein / BTK; experiment: BTK inhibition selectivity compared with EGFR kinase inhibitory activity (in vitro); type: biochemical; details: EGFR assay ATP 1.5 μM
Description: 1) Measurement of BTK Inhibitory Activity
2) Measurement of EGFR Inhibitory Activity
Therefore, a biotinated peptide (biotin-[…]) was produced by referring to the amino acid sequence of the peptide. The purified recombinant human EGFR protein used in the test was purchased from Carna Biosciences, Inc.
With regard to the measurement of the inhibitory activity of the compounds, firstly, the compounds of the present invention were diluted stepwise with dimethyl sulfoxide (DMSO). […] The reaction was terminated by adding EDTA thereto in order to obtain a final concentration of 24 mM. Subsequently, a detection liquid containing Eu-labeled anti-phosphorylated tyrosine antibody PT66 (PerkinElmer, Inc.) and […] APC-SA (PerkinElmer, Inc.) was added thereto, and the system was left to stand for 2 hours or longer at room temperature.
3) BTK Inhibition Selectivity

A431 cells / TMD8 cells = experiment: Proliferation inhibitory activity against cell lines expressing BTK and EGFR (in vitro), comparison of selectivity; type: cell-based, human; details: ratio from GI50 (nM), 3 days culture, CELLTITER GLO
From the text: TMD8 cells, which are of a diffuse large B-cell lymphoma cell line expressing BTK, were suspended in RPMI1640 medium (manufactured by Life Technologies Corp.) containing 10% fetal bovine serum. A431 cells, which are of an EGFR-overexpressing, highly activated human epidermoid carcinoma cell line, were suspended in DMEM, high glucose medium (manufactured by Life Technologies Corp.) containing 10% fetal bovine serum. The cell suspensions were inoculated into each well of 384-well flat-bottomed microplates, and the cells were cultured for 1 day at 37° C. in an incubator containing 5% carbon dioxide gas. […] A DMSO solution of the test compounds was diluted with the medium used in the suspension of the each cells, and this was added to each of the wells of the cell culture plates such that the final concentration of DMSO would be 0.2%. The cells were further cultured for 3 days at 37° C. in an incubator containing 5% carbon dioxide gas. […] Proliferation inhibition ratio (%)=(C−T)/(C−C0)×100
T: Luminescence intensity of a well in which the test compound was added
C: Luminescence intensity of a well in which the test compound was not added
C0: Luminescence intensity of a well measured before the addition of the test compound
When a comparison is made between the cell proliferation inhibitory activity against A431 cells that depends on the EGFR proliferation signaling and the cell proliferation inhibitory activity against TMD8 cells that depends on the BTK proliferation signaling, the influence of the respective kinases at a cellular level is able to be evaluated. That is, when the “A431 cell proliferation inhibition ratio/TMD8 cell proliferation inhibition ratio” is calculated, it is contemplated that as the value of the ratio is larger, the selectivity to BTK over EGFR in the cells is higher.

purified recombinant human BTK protein, sequence (Q06187 whole entry): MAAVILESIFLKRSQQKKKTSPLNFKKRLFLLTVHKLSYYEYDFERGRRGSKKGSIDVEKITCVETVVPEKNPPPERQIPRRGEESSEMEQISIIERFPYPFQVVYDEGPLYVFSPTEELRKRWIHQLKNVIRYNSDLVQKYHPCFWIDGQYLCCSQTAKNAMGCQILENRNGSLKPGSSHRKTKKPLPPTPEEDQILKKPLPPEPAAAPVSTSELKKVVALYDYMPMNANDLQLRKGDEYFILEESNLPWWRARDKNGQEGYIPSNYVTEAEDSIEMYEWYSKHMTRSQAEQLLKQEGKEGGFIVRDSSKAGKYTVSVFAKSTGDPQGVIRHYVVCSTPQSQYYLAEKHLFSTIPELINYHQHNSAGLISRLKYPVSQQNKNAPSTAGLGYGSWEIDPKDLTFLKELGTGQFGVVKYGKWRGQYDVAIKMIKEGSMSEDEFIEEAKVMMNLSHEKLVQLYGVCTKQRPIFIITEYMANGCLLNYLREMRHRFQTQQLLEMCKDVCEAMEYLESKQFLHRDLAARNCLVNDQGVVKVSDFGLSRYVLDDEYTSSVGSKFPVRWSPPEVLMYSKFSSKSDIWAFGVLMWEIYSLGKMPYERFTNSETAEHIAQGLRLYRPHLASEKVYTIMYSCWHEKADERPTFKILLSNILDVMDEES

IC50 [1] [nM]	EGFR inhibitory activity IC50 value (nM)/BTK inhibitory activity IC50 value (nM) [2]	Compound	A431 cell proliferation inhibition ratio/TMD8 cell proliferation inhibitio ratio (A431 cells / TMD8 cells)
1.37	28.4	C=CC(=O)N1CCC[C@@H](n2nc(C(=O)Nc3nc4ncccc4o3)c3c(N)ncnc32)C1 [Example 9, (R)-1-(1-acryloylpiperidin-3-yl)-4-amino-N-(oxazolo[4,5-b]pyridin-2-yl)-1H-pyrazolo[3,4-d]pyrimidine-3-carboxamide]	8196.7
0.786	145.0	CN(C)C/C=C/C(=O)N1CCC[C@@H](n2nc(C(=O)Nc3nc4cc(Cl)ccc4o3)c3c(N)ncnc32)C1 [Example 15, (R,E)-4-amino-N-(5-chlorobenzo[d]oxazol-2-yl)-1-(1-(4-(dimethylamino)but-2-enoyl)piperidin-3-yl)-1H-pyrazolo[3,4-d]pyrimidine-3-carboxamide]	16442.0
0.733	158.1	CCN(C)C/C=C/C(=O)N1CCC[C@@H](n2nc(C(=O)Nc3nc4cc(Cl)ccc4o3)c3c(N)ncnc32)C1 [Example 16, (R,E)-4-amino-N-(5-chlorobenzo[d]oxazol-2-yl)-1-(1-(4-(ethyl(methyl)amino)but-2-enoyl)piperidin-3-yl)-1H-pyrazolo[3,4-d]pyrimidine-3-carboxamide]	>16313.2
0.811	157.2	CCN(CC)C/C=C/C(=O)N1CCC[C@@H](n2nc(C(=O)Nc3nc4cc(Cl)ccc4o3)c3c(N)ncnc32)C1 [Example 17, (R,E)-4-amino-N-(5-chlorobenzo[d]oxazol-2-yl)-1-(1-(4-(diethylamino)but-2-enoyl)piperidin-3-yl)-1H-pyrazolo[3,4-d]pyrimidine-3-carboxamide]	>12345.7
0.788	121.3	CC(C)N(C)C/C=C/C(=O)N1CCC[C@@H](n2nc(C(=O)Nc3nc4cc(Cl)ccc4o3)c3c(N)ncnc32)C1 [Example 18, (R,E)-4-amino-N-(5-chlorobenzo[d]oxazol-2-yl)-1-(1-(4-(isopropyl(methyl)amino)but-2-enoyl)piperidin-3-yl)-1H-pyrazolo[3,4-d]pyrimidine-3-carboxamide]	>15625.0
1.88	32.4	Nc1ncnc2c1c(C(=O)Nc1nc3cc(-c4ccccc4)ccc3o1)cn2[C@@H]1CCN(C(=O)/C=C/CN2CCCC2)C1 [Example 60, (R,E)-4-amino-N-(5-phenylbenzo[d]oxazol-2-yl)-7-(1-(4-(pyrrolidin-1-yl)but-2-enoyl)pyrrolidin-3-yl) 7H-pyrrolo[2,3-d]pyrimidine-5-carboxamide]	
2.34	67.5	Nc1ncnc2c1c(C(=O)Nc1nc3cc(-c4ccccc4)ccc3o1)cn2[C@@H]1CCN(C(=O)/C=C/CN2CCCCC2)C1 [Example 61, (R,E)-4-amino-N-(5-phenylbenzo[d]oxazol-2-yl)-7-(1-(4-(piperidin-1-yl)but-2-enoyl)pyrrolidin-3-yl) 7H-pyrrolo[2,3-d]pyrimidine-5-carboxamide]	
259	11.2	CN(C)C/C=C/C(=O)N1CC[C@H](n2nc(C(=O)Nc3nc4ccccc4o3)c3c(N)ncnc32)C1 [Example 73, (S,E)-4-amino-N-(benzo[d]oxazol-2-yl)-1-(1-(4-(dimethylamino)but-2-enoyl)pyrrolidin-3-yl)-1H-pyrazolo[3,4-d]pyrimidine-3-carboxamide]	
	100.7	C=CC(=O)N[C@H]1CC[C@@H](n2nc(C(=O)Nc3nc4cc(Cl)ccc4o3)c3c(N)ncnc32)CC1 [Example 78, 1-((1S,4S)-4-acrylamidocyclohexyl)-4-amino-N-(5-chlorobenzo[d]oxazol-2-yl)-1H-pyrazolo[3,4-d]pyrimidine-3-carboxamide]	>23596.7
	204.9	C=CC(=O)N[C@H]1CC[C@@H](n2nc(C(=O)Nc3nc4cc(F)ccc4o3)c3c(N)ncnc32)CC1 [Example 81, 1-((1S,4S)-4-acrylamidocyclohexyl)-4-amino-N-(5-fluorobenzo[d]oxazol-2-yl)-1H-pyrazolo[3,4-d]pyrimidine-3-carboxamide]	8346.7
	10.9	C=CC(=O)N1CCC(n2nc(C(=O)Nc3nc4ccccc4o3)c3c(N)ncnc32)C1 (stereo not drawn) [Example 82, 1-(1-acryloylpyrrolidin-3-yl)-4-amino-N-(benzo[d]oxazol-2-yl)-1H-pyrazolo[3,4-d]pyrimidine-3-carboxamide]	8143.0
	39.6	C=CC(=O)N1CCC(n2nc(C(=O)Nc3nc4cc(F)ccc4o3)c3c(N)ncnc32)C1 (stereo not drawn) [Example 83, 1-(1-acryloylpyrrolidin-3-yl)-4-amino-N-(5-fluorobenzo[d]oxazol-2-yl)-1H-pyrazolo[3,4-d]pyrimidine-3-carboxamide]	>18797.0
7.34	20.4	(E)-4-amino-N-(5-chlorobenzo[d]oxazol-2-yl)-7-(1-(4-(dimethylamino)but-2-enoyl)azetidin-3-yl) 7H-pyrrolo[2,3-d]pyrimidine-5-carboxamide [Example 47]	

Compound	IC50 [1] [nM]	EGFR inhibitory activity IC50 value (nM)/BTK inhibitory activity IC50 value (nM) [2]	A431 cell proliferation inhibition ratio/TMD8 cell proliferation inhibitio ratio (A431 cells / TMD8 cells)
C=CC(=O)N1CC(Cn2nc(C(=O)Nc3nc4cc(F)ccc4o3)c3c(N)ncnc32)C1 [Example 75, 1-((1-acryloylazetidin-3-yl)methyl)-4-amino-N-(5-fluorobenzo[d]oxazol-2-yl)-1H-pyrazolo[3,4-d]pyrimidine-3-carboxamide]		58.2	>1643.7
C=CC(=O)N1CC(Cn2nc(C(=O)Nc3nc4cc(Cl)ccc4o3)c3c(N)ncnc32)C1 [Example 76, 1-((1-acryloylazetidin-3-yl)methyl)-4-amino-N-(5-chlorobenzo[d]oxazol-2-yl)-1H-pyrazolo[3,4-d]pyrimidine-3-carboxamide]		11.4	>2345.8
C=CC(=O)N1CCC(Cn2nc(C(=O)Nc3nc4cc(F)ccc4o3)c3c(N)ncnc32)CC1 [Example 77, 1-((1-acryloylpiperidin-4-yl)methyl)-4-amino-N-(5-fluorobenzo[d]oxazol-2-yl)-1H-pyrazolo[3,4-d]pyrimidine-3-carboxamide]		203.7	>6793.5
C=CC(=O)N1CCC(Cn2nc(C(=O)Nc3nc4cc(Cl)ccc4o3)c3c(N)ncnc32)CC1 [Example 80, 1-((1-acryloylpiperidin-4-yl)methyl)-4-amino-N-(5-chlorobenzo[d]oxazol-2-yl)-1H-pyrazolo[3,4-d]pyrimidine-3-carboxamide]		75.4	14348.9
